In PubChem BioAssay (NCI):
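Tested at 5 concentrations; 48 h exposure; 96-well plates; endpoints linearly interpolated, else capped at highest concentration. GI50: concentration for 50% inhibition of growth. TGI marks complete inhibition of growth.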

Legend:
Assay in all cases: DTP human tumour cell line panel, 48 h
UO-31 renal = test system: UO-31 renal
MCF7 breast = test system: MCF7 breast
HL-60(TB) leukemia = test system: HL-60(TB) leukemia
HS 578T breast = test system: HS 578T breast
T-47D breast = test system: T-47D breast
DU-145 prostate = test system: DU-145 prostate
MALME-3M melanoma = test system: MALME-3M melanoma
SNB-75 CNS = test system: SNB-75 CNS
DMS 114 small cell lung = test system: DMS 114 small cell lung
M19-MEL melanoma = test system: M19-MEL melanoma
KM20L2 colon = test system: KM20L2 colon
XF 498 CNS = test system: XF 498 CNS

Compound	TGI (UO-31 renal) [µM]	TGI (MCF7 breast) [µM]	TGI (HL-60(TB) leukemia) [µM]	TGI (HS 578T breast) [µM]	TGI (T-47D breast) [µM]	TGI (DU-145 prostate) [µM]	TGI (MALME-3M melanoma) [µM]	TGI (SNB-75 CNS) [µM]	GI50 (UO-31 renal) [µM]	GI50 (MCF7 breast) [µM]	GI50 (HL-60(TB) leukemia) [µM]	GI50 (HS 578T breast) [µM]	GI50 (T-47D breast) [µM]	GI50 (DU-145 prostate) [µM]	GI50 (MALME-3M melanoma) [µM]	GI50 (SNB-75 CNS) [µM]	TGI (DMS 114 small cell lung) [µM]	TGI (M19-MEL melanoma) [µM]	TGI (KM20L2 colon) [µM]	TGI (XF 498 CNS) [µM]
C=C1C(=O)O[C@H]2[C@H](OC(C)=O)[C@@H](C)CCC/C(C)=C/CC[C@@]3(C)O[C@@H]3C[C@@H]12	7.51	7.71	2.38	13.2	3.62	6.87	30.6	21.2												
CCCCCCCCCCCCOC1C(C(COC2OC(C3COC(C)(C)O3)C3OC(C)(C)OC23)NC(=O)NS(=O)(=O)c2ccccc2)OC2OC(C)(C)OC21 (configuration not stated)	19.7	12.9	2.69	11.1	39.5	8.39	41.8	31.6	5.16	2.98	0.406	2.9	8.66	2.74	13.7	11.4				
COc1ccc(/C=C(\C#N)n2nnc3ccccc32)cc1	13	> 100		> 100	72.9		> 71.2	0.337	1.01	0.328	0.126	0.396	0.0865	0.323	0.418	0.0327				
CCC[CH2][Sn]([CH2]CCC)([CH2]CCC)[O]C(=O)c1ccc(Cl)cc1Cl	0.304	0.278	0.494	0.538	0.289	0.257	0.258	0.248	0.146	0.137	0.187	0.173	0.138	0.128	0.111	0.117				
CC1=NN(C(=O)CC(=O)NC(=O)CC(=O)Nc2ccccc2F)C(=O)C1N=Nc1ccc([N+](=O)[O-])cc1 (configuration not stated)	84.2						> 100	98.2									41	92.8	> 100	70.9
COc1ccc2c(c1)Oc1cc(O)ccc1[C@@H]2c1ccccc1C(=O)NC(C)c1ccccc1 (some centres not stated)	34.1		34.5				31.3	36.3									32.3	32.2	31.4	
Cc1ccc(NC(=O)C(=O)CC(=O)c2c(C)n([O-])c3ccccc3[n+]2=O)cc1	> 100		48.6				65.2	58									38.5	36.1	71.8	
O=C(NCCCCCCNC(=O)OCCSCCn1cc(C(=O)NC(=O)OCc2ccccc2)c(=O)[nH]c1=O)OCCSCCn1cc(C(=O)NC(=O)OCc2ccccc2)c(=O)[nH]c1=O	> 100						> 100										> 100	> 100	> 100	> 100
COc1ccc(C(=O)/C=C/c2ccc3c(c2)OCO3)c(OCc2ccccc2)c1	> 100	> 100	6.47	> 100	> 100	> 100	> 100	> 100												
COC(=O)C1=C(C(=O)OC)SC(=C(Cl)C(=S)Nc2ccccc2O)S1	39.2	25.7	> 50	> 50	> 50	> 50	> 50	> 50	14.4	8.57	16.6	31.6	17	15.7	21.7	33.7				
COC(=O)C1CCCN1C(=O)[C@@H]1CCCN1C(=O)[C@H](Cc1c[nH]c2ccccc12)NC(=S)Nc1cc(C(F)(F)F)cc(C(F)(F)F)c1 (some centres not stated)	14.5	6	5.95	11.4	7.2	6.47	12.7	8.92	3.63	2.19	2.35	3.1	1.98	2.52	3.35	2.48				
CC(C)(CN1CCCCC1)C(=O)/C=C/c1ccc(Cl)cc1	20.2		4.8				18.9	11.4									15.4	23.4	7.48	
Cn1ccc2c(C(=O)c3ccccc3)cccc2c1=O			88.9				> 100	72.3									> 100	> 100		> 100
Cc1cc(=O)[nH]c2cc3c(c4c(n3Cc3ccc(Cl)cc3Cl)CC(C)(C)CC4=O)c(O)c12	> 100	> 100	> 100	> 100	> 100	> 100	75.9	59.8	> 100	> 100	> 100	49.2	> 100	46.2	29.9	24.6				
Fc1ccccc1C1SCc2nc3ccccc3n21 (configuration not stated)	> 100		44.6				> 100	> 100									> 100	> 100		
c1ccc2cc3[s+]snc3cc2c1	> 100		> 100				> 100	> 100										> 100	> 100	> 100
Cc1cc(NCc2cc(Nc3ccnc4cc(Cl)ccc34)ccc2F)nc(N2CCN(C)CC2)n1	3.11	5.65	3.67	5.21	6.13	11.4	3.66	3.16	1.38	1.94	1.68	1.87	2.1	2.63	1.84	1.21				
C=C(C)[C@@H]1CC[C@]2(C)[C@H](CC=C3[C@@H]4[C@@H](C)[C@H](C)CC[C@]4(C(N)=O)CC[C@]32C)[C@@]1(C)CCC#N	26.1	> 100	6.03	88.8	> 100	26.4	27.9	> 100	3.46	3.59	2.35	11.6	2.85	4.41	5.69	3.57				
COC(=O)[C@]12CC=C3O[C@@H]4OC5(CCCCC5)O[C@@H]4C3[C@@H]1C(=O)CCC2=O (some centres not stated)	> 100		> 100				> 100	> 100									> 100		> 100	> 100
